These results are taken from patent US20210403435A1, “HERBICIDAL COMPOUNDS” (SYNGENTA CROP PROTECTION AG, priority 2018, published 2021).

Holding throughout (test): Post-emergence efficacy, glasshouse, evaluated after 13 days
Holding throughout (format): in vivo

In experiment [1] the test system is Echinochloa crus-galli (ECHCG). Particulars: post-emergence application, 500 g/Ha, evaluated after 13 days; for pest or weed control at 500 g/ha: Echinochloa crus-galli, 312 h, read-out: Control of weed species ECHCG (100=total damage to plant; 0=no damage to plant). On the procedure: (§1) Seeds of a variety of test species were sown in standard soil in pots. After cultivation for 14 days (post-emergence) under controlled conditions in a glasshouse (at 24/16° C., day/night; 14 hours light; 65% humidity), the plants were sprayed with an aqueous spray solution derived from the dissolution of the technical active ingredient formula (I) in a small amount of acetone and a special solvent and emulsifier mixture referred to as IF50 (11.12% Emulsogen EL360 TM+44.44% N-methylpyrrolidone+44.44% Dowanol DPM glycol ether), to create a 50 g/l solution which was then diluted to required concentration using 0.25% or 1% Empicol ESC70 (Sodium lauryl ether sulphate)+1% ammonium sulphate as diluent.
(§2) The test plants were then grown in a glasshouse under controlled conditions (at 24/16° C., day/night; 14 hours light; 65% humidity) and watered twice daily. After 13 days the test was evaluated (100=total damage to plant; 0=no damage to plant).
(§3) Ipomoea hederacea (IPOHE), Euphorbia heterophylla (EPHHL), Chenopodium album (CHEAL), Amaranthus palmeri (AMAPA), Lolium perenne (LOLPE), Digitaria sanguinalis (DIGSA), Eleusine indica (ELEIN), Echinochloa crus-galli (ECHCG), Setaria faberi (SETFA)

Experiment [2] deals with Setaria faberi (SETFA). Particulars: post-emergence application, 500 g/Ha, evaluated after 13 days; for pest or weed control at 500 g/ha: Setaria faberi, 312 h, read-out: Control of weed species SETFA (100=total damage to plant; 0=no damage to plant). The procedure: as §1, §2, §3
Experiment [3] deals with Amaranthus palmeri (AMAPA). Conditions: post-emergence application, 500 g/Ha, evaluated after 13 days; for pest or weed control at 500 g/ha: Amaranthus palmeri, 312 h, read-out: Control of weed species AMAPA (100=total damage to plant; 0=no damage to plant). On the procedure: as §1, §2, §3
The subject of experiment [4] is Chenopodium album (CHEAL). Particulars: post-emergence application, 500 g/Ha, evaluated after 13 days; for pest or weed control at 500 g/ha: Chenopodium album, 312 h, read-out: Control of weed species CHEAL (100=total damage to plant; 0=no damage to plant). The procedure:
as §1, §2, §3

The subject of experiment [5] is Lolium perenne (LOLPE). Particulars: post-emergence application, 500 g/Ha, evaluated after 13 days; for pest or weed control at 500 g/ha: Lolium perenne, 312 h, read-out: Control of weed species LOLPE (100=total damage to plant; 0=no damage to plant). The procedure:
as §1, §2, §3

The test system of experiment [6] is Eleusine indica (ELEIN). Conditions: post-emergence application, 500 g/Ha, evaluated after 13 days; for pest or weed control at 500 g/ha: Eleusine indica, 312 h, read-out: Control of weed species ELEIN (100=total damage to plant; 0=no damage to plant). On the procedure:
as §1, §2, §3

Experiment [7] concerns Ipomoea hederacea (IPOHE). Conditions: post-emergence application, 500 g/Ha, evaluated after 13 days; for pest or weed control at 500 g/ha: Ipomoea hederacea, 312 h, read-out: Control of weed species IPOHE (100=total damage to plant; 0=no damage to plant). On the procedure: as §1, §2, §3
Experiment [8] deals with Digitaria sanguinalis (DIGSA). Particulars: post-emergence application, 500 g/Ha, evaluated after 13 days; for pest or weed control at 500 g/ha: Digitaria sanguinalis, 312 h, read-out: Control of weed species DIGSA (100=total damage to plant; 0=no damage to plant). The procedure: as §1, §2, §3

Turning to `CC(C)N(C)C(=O)c1cc[n+](CCS(=O)(=O)O)nc1` [Compound A9], the pest or weed control at 500 g/ha is 30% in experiment [1]; 60% in experiment [2]; 90% in experiment [3]; 90% in experiment [4]; 30% in experiment [5]; 20% in experiment [6]. Moreover, the pest or weed control at 500 g/ha in experiment [7] turned out to be 30%; in experiment [8] it was 50%.
With `CCCCNC(=O)c1cc[n+](CCC(=O)O)nc1` [Compound A45], the pest or weed control at 500 g/ha in experiment [1] was 70%; in experiment [2], 90%; in experiment [3] it was 80%; in experiment [4], 90%; in experiment [5], 60%; in experiment [6] it was 80%. Besides, the pest or weed control at 500 g/ha was 30% in experiment [7] and 70% in experiment [8].
On to `CCNC(=O)c1cc[n+](CCS(=O)(=O)[O-])nc1` [Compound A48], for which the pest or weed control at 500 g/ha in experiment [1] was found to be 70%; in experiment [2] it was 90%; in experiment [3] it was 90%; in experiment [5] it was 70%; in experiment [6] it was 100%; in experiment [7], 80%. The pest or weed control at 500 g/ha in experiment [8] is 90%.
On to `O=C(NCCO)c1cc[n+](CCS(=O)(=O)[O-])nc1` [Compound A49], for which the pest or weed control at 500 g/ha in experiment [1] came to 80%; in experiment [2] it was 90%; in experiment [3], 100%; in experiment [4] it was 80%; in experiment [5] it was 60%; in experiment [6], 30%. Besides, the pest or weed control at 500 g/ha was 70% in experiment [7] and 100% in experiment [8].
For the molecule `CNC(=O)c1cc[n+](CCS(=O)(=O)[O-])nc1-c1ccccc1` [Compound A54], the pest or weed control at 500 g/ha in experiment [1] came out at 40%; in experiment [2], 20%; in experiment [3] it was 80%; in experiment [4], 70%; in experiment [5], 0%; in experiment [6] it was 50%. Moreover, the pest or weed control at 500 g/ha in experiment [7] was 10%; in experiment [8], 60%.
Turning to `CNC(=O)c1cc[n+](CCC(=O)O)nc1-c1ccccc1` [Compound A55], the pest or weed control at 500 g/ha in experiment [1] amounted to 80%; in experiment [2] it was 40%; in experiment [3], 100%; in experiment [4], 80%; in experiment [5], 0%; in experiment [6], 30%. The figures for the pest or weed control at 500 g/ha in experiment [7] and in experiment [8] were 40% and 60%, respectively.
`CNC(=O)c1cc[n+](CCS(=O)(=O)[O-])nc1C` [Compound A56]: the “Control of weed species ECHCG (100=total damage to plant; 0=no damage to plant)” value in experiment [1] was found to be 90. In addition, the “Control of weed species SETFA (100=total damage to plant; 0=no damage to plant)” value in experiment [2] is reported as 60. For the same molecule, the “Control of weed species AMAPA (100=total damage to plant; 0=no damage to plant)” value in experiment [3] stood at 100. The “Control of weed species CHEAL (100=total damage to plant; 0=no damage to plant)” value in experiment [4] is on record as 90. The “Control of weed species LOLPE (100=total damage to plant; 0=no damage to plant)” value in experiment [5] was 40. Moreover, the “Control of weed species ELEIN (100=total damage to plant; 0=no damage to plant)” value in experiment [6] is on record as 60. The “Control of weed species IPOHE (100=total damage to plant; 0=no damage to plant)” value in experiment [7] was determined as 30. The “Control of weed species DIGSA (100=total damage to plant; 0=no damage to plant)” value in experiment [8] is given as 80.
`O=C(O)CC[n+]1ccc(C(=O)NC2CCCC2)cn1` [Compound A58]: the pest or weed control at 500 g/ha in experiment [1] is 70%; in experiment [2], 90%; in experiment [3], 70%; in experiment [4], 60%; in experiment [5], 90%; in experiment [6], 90%. Moreover, the figures for the pest or weed control at 500 g/ha in experiment [7] and in experiment [8] were 30% and 90%, respectively.
